The numbers were not newly measured in patent publication US20130172186A1 (priority 2010, published 2013), which cites them from elsewhere.

Read-outs that look alike come from different tables or passages of the source.

In series [1] the test system is phytoalexins and phenols in potato tubers. Particulars: tubers from treated plants after P. infestans challenge.
The test system of the next series is P. cinnamomi. Particulars: 40 μg/ml phosphonate in culture, 4 days later.

`CCO[PH](=O)O` [fosetyl-Al, aluminium tris(o-etyl phosphonate)]: in series [1], the “increase of accumulation of phenols vs control tubers” value is given as “fivefold” and the “increase of accumulation of phytoalexins vs control tubers” value is on record as “approximately tenfold”. For the same compound, the “observed instances in which pathogen growth was arrested at the local hypersensitive cell death sites” value with P. nicotianae (in vivo) is 86%.
Consider phosphite, for which the “observed instances in which pathogen growth was arrested at the local hypersensitive cell death sites” value with P. nicotianae (fosetyl-Al (100 μg/ml)- or phosphite (70 μg/ml)-treated tobacco seedlings, in 24 h) is 86%.
For phosphonate, the “P. cinnamomi growth inhibited” value in the series on P. cinnamomi is listed as “about 70%”.
